# From BindingDB's records for doi:10.1016/S0960-894X(97)00247-3 (1997)
# Biological target: Phospholipase A2, membrane associated (group IIA)
# Assay: Compound was tested for the Inhibition of human Secretory phospholipase A 2 acyl hydrolysis using a membrane assay; Inactive
row,Structure (SMILES),IC50
1,CCCCCCCCCCCCCCCCCCOCC(CCCCO)NC(C)=O (configuration not stated) [N-(5-Hydroxy-1-octadecyloxymethyl-pentyl)-acetamide],> 200 µM

# Biological target: not listed separately
# Assay: Compound was tested for the Inhibition of human Secretory phospholipase A 2 acyl hydrolysis using a membrane assay; inactive
row,Structure (SMILES),IC50
1,"CCCCCCCCCCCCCCCCCCOCC(COCC(F)(F)F)NC(C)=O (configuration not stated) [N-[1-Octadecyloxymethyl-2-(2,2,2-trifluoro-ethoxy)-ethyl]-acetamide]",100 µM
2,C=CCCC(COCCCCCCCCCCCCCCCCCC)NC(C)=O (configuration not stated) [N-(1-Octadecyloxymethyl-pent-4-enyl)-acetamide],8 µM
3,CCCCCCCCCCCCC(=O)NC(CCCC)CCc1nnn[nH]1 (configuration not stated) [Tridecanoic acid {1-[2-(1H-tetrazol-5-yl)-ethyl]-pentyl}-amide],6.6 µM
4,CCCCCCCCCCCCCCCCCCOCC(CCS(=O)(=O)c1ccc(C)cc1)NC(C)=O (configuration not stated) [N-[1-Octadecyloxymethyl-3-(toluene-4-sulfonyl)-propyl]-acetamide],50 µM
5,CCCCCCCCCCCCCCCCCCOCC(CCc1nnn[nH]1)NC(C)=O (configuration not stated) [N-[1-Octadecyloxymethyl-3-(1H-tetrazol-5-yl)-propyl]-acetamide],0.57 µM
6,"CCCCCCCCCCCCCCCCCCOCC(CCC(O)CO)NC(C)=O (configuration not stated) [N-(4,5-Dihydroxy-1-octadecyloxymethyl-pentyl)-acetamide]",8.9 µM
7,CCCCCCCCCCCCCCCCCCOCC(CC[S+](C)[O-])NC(C)=O (configuration not stated) [N-[1-[(Octadecyloxy)methyl]-3-(methylsulfinyl)propyl]acetamide],60 µM
8,CCCCCCCCCCCCCCCCCCOCC(CCCC)NC(C)=O (configuration not stated) [N-(1-Octadecyloxymethyl-pentyl)-acetamide],60 µM
9,CCCCCCCCCCCCC(=O)NC(COCCC)COP(=O)(O)OCCO (configuration not stated) [Phosphoric acid 2-hydroxy-ethyl ester 3-propoxy-2-tridecanoylamino-propyl ester],1 µM
10,CCCCCCCCOC[C@H](CO[P@](=O)(O)OCCN)O[P@@](=O)(O)CCCCCCC,1 µM

# Biological target: not listed separately
# Assay: as above
# Remark: another data set of the same source
row,Structure (SMILES),IC50
1,CCCCCCCCCCCCCCCCCCOCC(CCCO)NC(C)=O (configuration not stated) [N-(4-Hydroxy-1-octadecyloxymethyl-butyl)-acetamide],> 200 µM
2,CCCCCCCCCCCCCCCCCCOCC(CCC1CO1)NC(C)=O (configuration not stated) [N-(1-Octadecyloxymethyl-3-oxiranyl-propyl)-acetamide],> 200 µM
3,CCCCCCCCCCCCCCCCCCOCC(CC[S+]([O-])c1ccc(C)cc1)NC(C)=O (configuration not stated) [N-{1-(Octadecyloxymethyl)-3-[(4-methylphenyl)sulfinyl]propyl}acetamide],> 200 µM
4,CCCCCCCCCCCCCCCCCCOCC(CCC(C)=O)NC(C)=O (configuration not stated) [N-(1-Octadecyloxymethyl-4-oxo-pentyl)-acetamide],> 200 µM
5,CCCCCCCCCCCCCCCCCCOCC(CCSc1ccc(C)cc1)NC(C)=O (configuration not stated) [N-(1-Octadecyloxymethyl-3-p-tolylsulfanyl-propyl)-acetamide],> 200 µM
6,CCCCCCCCCCCCCCCCCCOCC(CNS(=O)(=O)c1ccc(C)cc1)NC(C)=O (configuration not stated) [N-[1-Octadecyloxymethyl-2-(toluene-4-sulfonylamino)-ethyl]-acetamide],> 200 µM
